According to PubChem BioAssay AID1918939 (Molecular Pharmacology Branch, DTP, NCI, 2023):
Where “and” joins values, the source holds several entries; their conditions need not be identical. Equal entries are not always repeated.

System: 653999-131-R-J2-PDC complex spheroid viability
Assay: Anticancer human tumor 653999-131-R-J2-PDC patient-derived lung adenocarcinoma cell line growth inhibition
Settings: for viability, T/C: stronger effect = lower value; active means viability on the fitted dose curve at most 10% of control; inactive means the rest
In short: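 Drug combinations with the LSD1 inhibitor iadademstat tested on tumor cells co-cultured as spheroids with endothelial cells and mesenchymal stem cells. Concentrations descended in half-log increments from clinical Cmax or 10 microM.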

[1] = curve of first compound, second compound 0.1 µM
[2] = curve of first compound, second compound 0.316 µM
[3] = curve of first compound, second compound 1 µM
[4] = curve of first compound, second compound 3.16 µM
[5] = curve of first compound, second compound 10 µM
[6] = second compound 0.1 µM, first compound 0.0316 µM
[7] = second compound 0.1 µM, first compound 0.1 µM
[8] = second compound 0.316 µM, first compound 0.0316 µM
[9] = second compound 0.316 µM, first compound 0.1 µM
[10] = second compound 1 µM, first compound 0.0316 µM
[11] = second compound 1 µM, first compound 0.1 µM
[12] = second compound 3.16 µM, first compound 0.0316 µM
[13] = second compound 3.16 µM, first compound 0.1 µM
[14] = second compound 10 µM, first compound 0.0316 µM
[15] = second compound 10 µM, first compound 0.1 µM
[16] = second compound 0.1 µM, first compound 0.000316 µM
[17] = second compound 0.1 µM, first compound 0.001 µM
[18] = second compound 0.1 µM, first compound 0.00316 µM
[19] = second compound 0.1 µM, first compound 0.01 µM
[20] = second compound 0.316 µM, first compound 0.000316 µM
[21] = second compound 0.316 µM, first compound 0.001 µM
[22] = second compound 0.316 µM, first compound 0.00316 µM
[23] = second compound 0.316 µM, first compound 0.01 µM
[24] = second compound 1 µM, first compound 0.000316 µM
[25] = second compound 1 µM, first compound 0.001 µM
[26] = second compound 1 µM, first compound 0.00316 µM
[27] = second compound 1 µM, first compound 0.01 µM
[28] = second compound 3.16 µM, first compound 0.000316 µM
[29] = second compound 3.16 µM, first compound 0.001 µM
[30] = second compound 3.16 µM, first compound 0.00316 µM
[31] = second compound 3.16 µM, first compound 0.01 µM
[32] = second compound 10 µM, first compound 0.000316 µM
[33] = second compound 10 µM, first compound 0.001 µM
[34] = second compound 10 µM, first compound 0.00316 µM
[35] = second compound 10 µM, first compound 0.01 µM
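Further: spheroids exposed to agents for seven days before readout.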

COc1ccc([C@@H](O)c2cc(-c3ncnc4cc(N5CCOCC5)ccc34)c(F)cc2Cl)nn1 + NC1CC1c1ccc(-c2cccc(O)c2)cc1
1.25 µM: IC50 [2]
1.13 µM: IC50 [4]
0.968 µM: IC50 [5]
0.972 µM: IC50 [3]
2.81 µM: IC50 [1]
inactive: viability, T/C [6] 79.2% | viability, T/C [7] 84.6% | viability, T/C (second compound 0.1 µM, first compound 0.316 µM) 72.1% | viability, T/C (second compound 0.1 µM, first compound 1 µM) 55% | viability, T/C (second compound 0.1 µM, first compound 3.16 µM) 54.1% | viability, T/C (second compound 0.1 µM, first compound 10 µM) 28.5% | viability, T/C [8] 74.1% | viability, T/C [9] 86.5% | viability, T/C (second compound 0.316 µM, first compound 0.316 µM) 65.8% | viability, T/C (second compound 0.316 µM, first compound 1 µM) 51.1% | viability, T/C (second compound 0.316 µM, first compound 3.16 µM) 40.7% | viability, T/C (second compound 0.316 µM, first compound 10 µM) 26.5% | viability, T/C [10] 85.6% | viability, T/C [11] 74.3% | viability, T/C (second compound 1 µM, first compound 0.316 µM) 70.2% | viability, T/C (second compound 1 µM, first compound 1 µM) 49.3% | viability, T/C (second compound 1 µM, first compound 3.16 µM) 31.9% | viability, T/C (second compound 1 µM, first compound 10 µM) 24.4% | viability, T/C [12] 77.4% | viability, T/C [13] 71.5% | viability, T/C (second compound 3.16 µM, first compound 0.316 µM) 63.2% | viability, T/C (second compound 3.16 µM, first compound 1 µM) 49.5% | viability, T/C (second compound 3.16 µM, first compound 3.16 µM) 39.4% | viability, T/C (second compound 3.16 µM, first compound 10 µM) 22.6% | viability, T/C [14] 71.2% | viability, T/C [15] 70.6% | viability, T/C (second compound 10 µM, first compound 0.316 µM) 58.2% | viability, T/C (second compound 10 µM, first compound 1 µM) 53.3% | viability, T/C (second compound 10 µM, first compound 3.16 µM) 33% | viability, T/C (second compound 10 µM, first compound 10 µM) 26.1%

COc1cc(C2c3cc4c(cc3C(OC3OC5COC(C)OC5C(O)C3O)C3COC(=O)C23)OCO4)cc(OC)c1O (centres undefined) + NC1CCC(NC2CC2c2ccccc2)CC1
0.168 µM: IC50 [4]
0.0645 µM: IC50 [3]
0.0884 µM: IC50 [1]
0.123 µM: IC50 [2]
inactive: viability, T/C (second compound 0.1 µM, first compound 0.00949 µM) 70.8% | viability, T/C (second compound 0.1 µM, first compound 0.03 µM) 61.6% | viability, T/C (second compound 0.1 µM, first compound 0.0949 µM) 48.6% | viability, T/C (second compound 0.1 µM, first compound 0.3 µM) 38.2% | viability, T/C (second compound 0.1 µM, first compound 0.949 µM) 37.6% | viability, T/C (second compound 0.1 µM, first compound 3 µM) 28.3% | viability, T/C (second compound 0.316 µM, first compound 0.00949 µM) 68.6% | viability, T/C (second compound 0.316 µM, first compound 0.03 µM) 63.7% | viability, T/C (second compound 0.316 µM, first compound 0.0949 µM) 54.5% | viability, T/C (second compound 0.316 µM, first compound 0.3 µM) 36.6% | viability, T/C (second compound 0.316 µM, first compound 0.949 µM) 31.3% | viability, T/C (second compound 0.316 µM, first compound 3 µM) 29.7% | viability, T/C (second compound 1 µM, first compound 0.00949 µM) 74.5% | viability, T/C (second compound 1 µM, first compound 0.03 µM) 52.6% | viability, T/C (second compound 1 µM, first compound 0.0949 µM) 50.2% | viability, T/C (second compound 1 µM, first compound 0.3 µM) 35.7% | viability, T/C (second compound 1 µM, first compound 0.949 µM) 37.5% | viability, T/C (second compound 1 µM, first compound 3 µM) 26.8% | viability, T/C (second compound 3.16 µM, first compound 0.00949 µM) 71.5% | viability, T/C (second compound 3.16 µM, first compound 0.03 µM) 66.6% | viability, T/C (second compound 3.16 µM, first compound 0.0949 µM) 55.9% | viability, T/C (second compound 3.16 µM, first compound 0.3 µM) 44.9% | viability, T/C (second compound 3.16 µM, first compound 0.949 µM) 31.3% | viability, T/C (second compound 3.16 µM, first compound 3 µM) 30.3% | viability, T/C (second compound 10 µM, first compound 0.00949 µM) 68.3% | viability, T/C (second compound 10 µM, first compound 0.03 µM) 60.6% | viability, T/C (second compound 10 µM, first compound 0.0949 µM) 57.7% | viability, T/C (second compound 10 µM, first compound 0.3 µM) 49.9% | viability, T/C (second compound 10 µM, first compound 0.949 µM) 37.3% | viability, T/C (second compound 10 µM, first compound 3 µM) 31.3%
0.241 µM: IC50 [5]

CC[C@@]1(O)C(=O)OCc2c1cc1n(c2=O)Cc2cc3c(CN(C)C)c(O)ccc3nc2-1 + NC1CC1c1ccc(-c2cccc(O)c2)cc1
0.0139 µM: IC50 [5]
0.00932 µM: IC50 [3]
0.0113 µM: IC50 [4]
inactive: viability, T/C [16] 114% | viability, T/C [17] 92.8% | viability, T/C [18] 85% | viability, T/C [19] 49.6% | viability, T/C [6] 33.6% | viability, T/C [7] 27.9% | viability, T/C [20] 111% | viability, T/C [21] 108% | viability, T/C [22] 83.8% | viability, T/C [23] 45.6% | viability, T/C [8] 35.6% | viability, T/C [9] 23.2% | viability, T/C [24] 82.6% | viability, T/C [25] 101% | viability, T/C [26] 79.6% | viability, T/C [27] 47.4% | viability, T/C [10] 35.8% | viability, T/C [11] 25.5% | viability, T/C [28] 91.6% | viability, T/C [29] 85.8% | viability, T/C [30] 87.1% | viability, T/C [31] 52% | viability, T/C [12] 31.9% | viability, T/C [13] 27.9% | viability, T/C [32] 86.9% | viability, T/C [33] 87.6% | viability, T/C [34] 80.7% | viability, T/C [35] 54.9% | viability, T/C [14] 36.1% | viability, T/C [15] 26.4%
0.0092 µM: IC50 [2]
0.0116 µM: IC50 [1]

CC[C@@]1(O)C(=O)OCc2c1cc1n(c2=O)Cc2cc3c(CN(C)C)c(O)ccc3nc2-1 + NC1CCC(NC2CC2c2ccccc2)CC1
inactive: viability, T/C [16] 89.3% | viability, T/C [17] 85.3% | viability, T/C [18] 50.7% | viability, T/C [19] 40.2% | viability, T/C [6] 27.5% | viability, T/C [7] 19.8% | viability, T/C [20] 87% | viability, T/C [21] 80.4% | viability, T/C [22] 57.9% | viability, T/C [23] 37.9% | viability, T/C [8] 26.2% | viability, T/C [9] 18% | viability, T/C [24] 94.7% | viability, T/C [25] 73.2% | viability, T/C [26] 61.6% | viability, T/C [27] 35.9% | viability, T/C [10] 25.1% | viability, T/C [11] 21.6% | viability, T/C [28] 78.7% | viability, T/C [29] 75.3% | viability, T/C [30] 52.7% | viability, T/C [31] 44.1% | viability, T/C [12] 29.9% | viability, T/C [13] 20.7% | viability, T/C [32] 91.9% | viability, T/C [33] 77.9% | viability, T/C [34] 63.9% | viability, T/C [35] 44.3% | viability, T/C [14] 27.1% | viability, T/C [15] 19.7%
0.00687 µM: IC50 [5]
0.00551 µM: IC50 [4]
0.00523 µM: IC50 [2]
0.00465 µM: IC50 [1]
0.0048 µM: IC50 [3]

CC(C)CC(NC(=O)CNC(=O)c1cc(Cl)ccc1Cl)B1OC(=O)CC(CC(=O)O)(C(=O)O)O1 (centres undefined)
inactive: viability, T/C (compound 0.000316 µM) 101% and 110% | viability, T/C (compound 0.001 µM) 108% and 115% | viability, T/C (compound 0.00316 µM) 92.6% and 107% | viability, T/C (compound 0.01 µM) 56.9% and 74.5% | viability, T/C (compound 0.0316 µM) 25.3% and 34.1%
0.0134 µM and 0.0199 µM: IC50 (curve of compound)
5.14% and 18.5%: viability, T/C (compound 0.1 µM)

Nc1ccccc1NC(=O)c1ccc(CNC(=O)OCc2cccnc2)cc1
inactive: viability, T/C (compound 0.00949 µM) 100% and 112% | viability, T/C (compound 0.03 µM) 73.8% and 105% | viability, T/C (compound 0.0949 µM) 75% and 76.2% | viability, T/C (compound 0.3 µM) 56.3% and 69.2% | viability, T/C (compound 0.949 µM) 38.6% and 20.9%
0.402 µM and 0.414 µM: IC50 (curve of compound)
11.8% and 1.21%: viability, T/C (compound 3 µM)
